The test system of assay [1] is OPM-2 human multiple myeloma cell line. Kind of assay: Cell Viability Assay (OPM-2 10 FBS). Type of assay: cell-based. The note with it: OPM-2 cells, CellTiter-Glo. In short, it runs like this: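 IC50 from 4-parameter logistic fit of CellTiter-Glo luminescence. 3000 cells/well, 10% FBS medium, serial compound dilutions, 16 h, 37 °C/5% CO2; read 25 min post-reagent.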
Background: In ATP-based viability assays light output follows the ATP content of the culture.

For assay [2], the target named is T1, Mcl-1/Bim interaction, recombinant human Mcl-1 (171-327) (Homo sapiens, UniProt Q07820).
T1 construct: made in house
T1 sequence (Q07820 171-327): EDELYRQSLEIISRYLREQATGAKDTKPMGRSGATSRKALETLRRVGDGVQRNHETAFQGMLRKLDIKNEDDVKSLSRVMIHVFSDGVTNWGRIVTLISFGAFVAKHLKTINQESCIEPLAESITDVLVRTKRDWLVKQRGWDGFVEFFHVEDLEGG
Kind of assay: Cell free Mcl-1: Bim Affinity Assay (Mcl-1 HTRF). Type of assay: binding. In short, it runs like this: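 Biotin-Bim(51-76) peptide, TR-FRET readout, overnight incubation; IC50 from duplicate competition curves, 4-parameter fit.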
(Time-resolved FRET reads energy transfer from a long-lived donor to a nearby acceptor.)

[3] abbreviates: TR-FRET, 0.1 nM Mcl-1 (171-327), 0.05 nM biotin-Bim (51-76).
Where [4] appears, read: Homo sapiens, OPM-2, 16 h, 16 h.
Setting [5] is: cell free Mcl-1:Bim TR-FRET, recombinant human Mcl-1 (171-327).

The term IC50 denotes the concentration needed to halve the response being measured. With `C[C@@H]1[C@@H](C)/C=C/[C@H](O)[C@@H]2CC[C@H]2CN2C[C@@]3(CCCc4cc(Cl)ccc43)COc3ccc(cc32)C(=O)NS1(=O)=O` (single isomer, unassigned) [Example 166], the IC50 amounted to 2070 nM in assay [1] (16 h) and 0.418 nM in assay [2] (setting [3]).

Turning to `C=CCN1CCCC[C@H](O)[C@@H]2CC[C@H]2CN2C[C@@]3(CCCc4cc(Cl)ccc43)COc3ccc(cc32)C(=O)NS1(=O)=O` [Example 87, (1S,3′R,6′R,7′S)-6-chloro-7′-hydroxy-12′-(2-propen-1-yl)-3,4-dihydro-2H,15′H-spiro[naphthalene-1,22′-[20]oxa[13]thia[1,12,14]triazatetracyclo[14.7.2.0^3,6.0^19,24]pentacosa[16,18,24]trien]-15′-one 13′,13′-dioxide], the IC50 was 3540 nM in assay [1] (setting [4]) and 3.31 nM in assay [2] (setting [3]).

On to `C[C@@H]1[C@@H](C)C/C=C/[C@H](OCC(=O)N2CC(F)(F)C2)[C@@H]2CC[C@H]2CN2C[C@@]3(CCCc4cc(Cl)ccc43)COc3ccc(cc32)C(=O)NS1(=O)=O` [Example 308, (1S,3′R,6′R,7′S,8′E,11′S,12′R)-6-chloro-7′-(2-(3,3-difluoro-1-azetidinyl)-2-oxoethoxy)-11′,12′-dimethyl-3,4-dihydro-2H,15′H-spiro[naphthalene-1,22′-[20]oxa[13]thia[1,14]diazatetracyclo[14.7.2.0^3,6.0^19,24]pentacosa [8,16,18,24]tetraen]-15′-one 13′,13′-dioxide], for which the IC50 in assay [1] (setting [4]) turned out to be 214 nM; in assay [2] (setting [3]) it was 0.382 nM.

As for `COC(=O)CC[C@@H]1CC/C=C/[C@H](O)[C@@H]2CC[C@H]2CN2C[C@@]3(CCCc4cc(Cl)ccc43)COc3ccc(cc32)C(=O)NS1(=O)=O` [Example 616], the half-maximal inhibitory concentration (IC50) in assay [1] (16 h) stood at 482 nM; in assay [2] (setting [5]), 0.178 nM.

Turning to `C=C1[C@@H](C)C/C=C/[C@H](O)[C@@H]2CC[C@H]2CN2C[C@@]3(CCCc4cc(Cl)ccc43)COc3ccc(cc32)C(=O)NS1(=O)=O` (single isomer, unassigned) [Example 468], the IC50 was determined as 262 nM in assay [1] (setting [4]) and 0.299 nM in assay [2] (setting [3]).

For `O=C1NS(=O)(=O)CCC/C=C/[C@@H](OCCN2CCOCC2)[C@@H]2CC[C@H]2CN2C[C@@]3(CCCc4cc(Cl)ccc43)COc3ccc1cc32` [Example 213, (1S,3′R,6′R,7′R,8′E)-6-chloro-7′-(2-(4-morpholinyl)ethoxy)-3,4-dihydro-2H,15′H-spiro[naphthalene-1,22′-[20]oxa[13]thia[1,14]diazatetracyclo[14.7.2.0^3,6.0^19,24]pentacosa [8,16,18,24]tetraen]-15′-one 13′,13′-dioxide], the IC50 in assay [1] (setting [4]) stood at 835 nM; in assay [2] (setting [3]), 1.08 nM.

Take `COc1ccc(CN2[C@@H](C)C/C=C/[C@H](O)[C@@H]3CC[C@H]3CN3C[C@@]4(CCCc5cc(Cl)ccc54)COc4ccc(cc43)C(=O)NS2(=O)=O)cc1` (single isomer, unassigned) [Example 80]: the IC50 is 6530 nM in assay [1] (setting [4]) and 8.98 nM in assay [2] (setting [3]).

With `CCC1CCC(OC)C=CC2CCC2CN2CC3(CCCc4cc(Cl)ccc43)COc3ccc(cc32)C(=O)NS1(=O)=O` (single isomer, unassigned) [Example 199], the concentration for half-maximal inhibition (IC50) was determined as 10200 nM in assay [1] (setting [4]) and 6.04 nM in assay [2] (setting [3]).

Turning to `C[C@@H]1[C@@H](C)C/C=C/[C@H](OCC(=O)N2CCNC(=O)C2)[C@@H]2CC[C@H]2CN2C[C@@]3(CCCc4cc(Cl)ccc43)COc3ccc(cc32)C(=O)NS1(=O)=O` [Example 314, (1S,3′R,6′R,7′S,8′E,11′S,12′R)-6-chloro-11′,12′-dimethyl-7′-(2-oxo-2-(3-oxo-1-piperazinyl)ethoxy)-3,4-dihydro-2H,15′H-spiro[naphthalene-1,22′-[20]oxa[13]thia[1,14]diazatetracyclo[14.7.2.0^3,6.0^19,24]pentacosa [8,16,18,24]tetraen]-15′-one 13′,13′-dioxide], the results for the IC50 in assay [1] (setting [4]) and in assay [2] (setting [3]) were 2120 nM and 0.136 nM, respectively.

As for `O=C1NS(=O)(=O)[C@H]2C[C@H](/C=C/[C@H](O)[C@@H]3CC[C@H]3CN3C[C@@]4(CCCc5cc(Cl)ccc54)COc4ccc1cc43)C2` [Example 102, (1S,3′R,6′R,7′S,8′E,10′R,12′S)-6-chloro-7′-hydroxy-3,4-dihydro-2H,15′H-spiro[naphthalene-1,22′-[20]oxa[13]thia[1,14]diazapentacyclo[14.7.2.1^10,12.0^3,6.0^19,24]hexacosa[8,16,18,24]tetraen]-15′-one 13′,13′-dioxide], the IC50 in assay [1] (setting [4]) worked out at 18600 nM; in assay [2] (setting [3]), 2.73 nM.

Regarding `C[C@@H]1[C@@H](C)C/C=C/[C@H](OCCN(C)C)[C@@H]2CC[C@H]2CN2C[C@@]3(CCCc4cc(Cl)ccc43)COc3ccc(cc32)C(=O)NS1(=O)=O` [Example 513, (1S,3′R,6′R,7′S,8′E,11′S,12′R)-6-chloro-7′-(2-(dimethylamino)ethoxy)-11′,12′-dimethyl-3,4-dihydro-2H,15′H-spiro[naphthalene-1,22′-[20]oxa[13]thia[1,14]diazatetracyclo[14.7.2.0^3,6.0^19,24]pentacosa [8,16,18,24]tetraen]-15′-one 13′,13′-dioxide], the values for the IC50 in assay [1] (setting [4]) and in assay [2] (setting [5]) were 184 nM and 0.395 nM, respectively.

Consider `COCCO[C@H]1/C=C/C[C@H](C)NS(=O)(=O)NC(=O)c2ccc3c(c2)N(C[C@@H]2CC[C@H]21)C[C@@]1(CCCc2cc(Cl)ccc21)CO3` [Example 68, (1S,3′R,6′R,7′S,8′E,11′S)-6-chloro-7′-(2-methoxyethoxy)-11′-methyl-3,4-dihydro-2H,15′H-spiro[naphthalene-1,22′-[20]oxa[13]thia[1,12,14]triazatetracyclo[14.7.2.0^3,6.0^19,24]pentacosa[8,16,18,24]tetraen]-15′-one 13′,13′-dioxide], for which the values for the concentration for half-maximal inhibition (IC50) in assay [1] (setting [4]) and in assay [2] (setting [3]) were 248 nM and 0.359 nM, respectively.

For the compound `COC1C=CC(CO)CC(C)S(=O)(=O)NC(=O)c2ccc3c(c2)N(CC2CCC21)CC1(CCCc2cc(Cl)ccc21)CO3` (single isomer, unassigned) [Example 128], the IC50 in assay [1] (setting [4]) amounted to 2520 nM; in assay [2] (setting [3]), 0.603 nM.

Regarding `COCCN1CCC/C=C/[C@H](O)[C@@H]2CC[C@H]2CN2C[C@@]3(CCCc4cc(Cl)ccc43)COc3ccc(cc32)C(=O)NS1(=O)=O` [Example 665, (1S,3′R,6′R,7′S,8′E)-6-chloro-7′-hydroxy-13′-(2-methoxyethyl)-3,4-dihydro-2H,16′H-spiro[naphthalene-1,23′-[21]oxa[14]thia[1,13,15]triazatetracyclo[15.7.2.0^3,6.0^20,25]hexacosa[8,17,19,25]tetraen]-16′-one 14′,14′-dioxide], the results for the 50% inhibitory concentration (IC50) in assay [1] (setting [4]) and in assay [2] (setting [5]) were 1320 nM and 2.89 nM, respectively.

`O=C1NS(=O)(=O)N(CC2COC2)CC/C=C/[C@H](O)[C@@H]2CC[C@H]2CN2C[C@@]3(CCCc4cc(Cl)ccc43)COc3ccc1cc32` [Example 40, (1S,3′R,6′R,7′S,8′E)-6-chloro-7′-hydroxy-12′-(3-oxetanylmethyl)-3,4-dihydro-2H,15′H-spiro[naphthalene-1,22′-[20]oxa[13]thia[1,12,14]triazatetracyclo[14.7.2.0^3,6.0^19,24]pentacosa[8,16,18,24]tetraen]-15′-one 13′,13′-dioxide]: the half-maximal inhibitory concentration (IC50) in assay [1] (setting [4]) came to 971 nM; in assay [2] (setting [3]) it was 0.462 nM.

On to `CC[C@H](O[C@H]1/C=C/C[C@H](C)[C@@H](C)S(=O)(=O)NC(=O)c2ccc3c(c2)N(C[C@@H]2CC[C@H]21)C[C@@]1(CCCc2cc(Cl)ccc21)CO3)C(=O)N(C)C` (single isomer, unassigned) [Example 430], for which the 50% inhibitory concentration (IC50) in assay [1] (16 h) was found to be 216 nM; in assay [2] (setting [3]) it was 0.743 nM.

Take `CC[C@@H]1CC/C=C/[C@H](OCc2ncco2)[C@@H]2CC[C@H]2CN2C[C@@]3(CCCc4cc(Cl)ccc43)COc3ccc(cc32)C(=O)NS1(=O)=O` [Example 986, (1S,3′R,6′R,7′S,8′E,12′R)-6-chloro-12′-ethyl-7′-(1,3-oxazol-2-ylmethoxy)-3,4-dihydro-2H,15′H-spiro[naphthalene-1,22′-[20]oxa[13]thia[1,14]diazatetracyclo[14.7.2.0^3,6.0^19,24]pentacosa [8,16,18,24]tetraen]-15′-one 13′,13′-dioxide]: the IC50 in assay [1] (Homo sapiens, OPM-2, 16 h, 16 h incubation) was 270 nM; in assay [2] (setting [3]), 0.476 nM.

With `COCCCO[C@H]1/C=C/C[C@H](C)[C@@H](C)S(=O)(=O)NC(=O)c2ccc3c(c2)N(C[C@@H]2CC[C@H]21)C[C@@]1(CCCc2cc(Cl)ccc21)CO3` [Example 512, (1S,3′R,6′R,7′S,8′E,11′S,12′R)-6-chloro-7′-(3-methoxypropoxy)-11′,12′-dimethyl-3,4-dihydro-2H,15′H-spiro[naphthalene-1,22′-[20]oxa[13]thia[1,14]diazatetracyclo[14.7.2.0^3,6.0^19,24]pentacosa [8,16,18,24]tetraen]-15′-one 13′,13′-dioxide], the results for the IC50 in assay [1] (setting [4]) and in assay [2] (setting [5]) were 362 nM and 0.998 nM, respectively.

As to `CNC(=O)C(OC)C1C=CC2CCC2CN2CC3(CCCc4cc(Cl)ccc43)COc3ccc(cc32)C(=O)NS(=O)(=O)C(C)C(C)C1` (single isomer, unassigned) [Example 361], the IC50 is 509 nM in assay [1] (setting [4]) and 0.519 nM in assay [2] (setting [3]).

Regarding `C[C@H]1CCCS(=O)(=O)NC(=O)c2ccc3c(c2)N(C[C@@H]2CC[C@H]2[C@@H](O)C1)C[C@@]1(CCCc2cc(Cl)ccc21)CO3` (single isomer, unassigned) [Example 243], the IC50 is 12100 nM in assay [1] (16 h) and 10.9 nM in assay [2] (setting [3]).

Turning to `NC(=O)OC[C@@H]1CC/C=C\[C@H](O)[C@@H]2CC[C@H]2CN2C[C@@]3(CCCc4cc(Cl)ccc43)COc3ccc(cc32)C(=O)NS1(=O)=O` (single isomer, unassigned) [Example 612], the results for the half-inhibitory concentration (IC50) in assay [1] (setting [4]) and in assay [2] (setting [5]) were 15200 nM and 0.362 nM, respectively.

Values taken from patent US12091425B2 (AMGEN INC., priority 2016, dated 2024).
